# Reference: US20150299219A1, “BICYCLIC PYRAZOLONE COMPOUNDS AND METHODS OF USE” (Calitor Sciences, LLC, priority 2014, published 2015)
# How the values were obtained:
# [1] = Compound stability in rat liver microsomes; type: in vitro ADME
# Protocol: (§1) Human or rat liver microsomes incubations were conducted in duplicate in polypropylene tubes. The typical incubation mixtures consisted of human or rat liver microsomes (0.5 mg protein/mL), compounds of interest (5 μM) and NADPH (1.0 mM) in a total volume of 200 μL potassium phosphate buffer (PBS, 100 mM, pH 7.4). Compounds were dissolved in DMSO and diluted with PBS such that the final concentration of DMSO was 0.05%. The enzymatic reactions were commenced with the addition of protein after a 3-min preincubation and incubated in a water bath open to the air at 37° C. Reactions were terminated at various time points (0, 5, 10, 15, 30, 60 min) by adding equal volume of ice-cold acetonitrile. The samples were stored at −80° C. until LC/MS/MS assays.
# (§2) The concentrations of compounds in the incubation mixtures of human or rat liver microsomes were determined by a LC/MS/MS method. The ranges of the linearity in the concentration range were determined for each tested compounds.
# (§3) A parallel incubation was performed using denatured microsomes as the negative control, and reactions were terminated at various time points (0, 15, 60 min) after incubation at 37° C.
# (§4) Dextromethorphan (70 μM) was selected as the positive control, and reactions were terminated at various time points (0, 5, 10, 15, 30, 60 min) after incubation at 37° C. Both positive and negative control samples were included in each assay to ensure the integrity of the microsomal incubation system.
# (§5) Alternatively, the stability of some of the compounds disclosed herein in human (or rat) liver microsomes were also conducted in the following protocol. The incubations were conducted in duplicate in polypropylene tubes. The typical incubation mixtures consisted of liver microsomes (final concentration: 0.5 mg protein/mL), compounds (final concentration: 1.5 μM) in a total volume of 30 μL K-buffer (contain 1.0 mM EDTA, 100 mM, pH7.4). Compounds were dissolved in DMSO and diluted with K-buffer such that the final concentration of DMSO was 0.2%. The enzymatic reactions were commenced with the addition of 15 μL of NADPH (final concentration: 2 mM) after 10 min preincubation and incubated in a 37° C. incubator. Reactions were terminated at various time points (0, 15, 30, 60 min) by adding 135 μL acetonitrile (contain IS). Protein is removed by centrifugation with 4000 rpm, 10 min. Supernatant was collected for LCMS/MS analysis
# (§6) In the above protocol, ketanserin (1 μM) was selected as the positive control, and reactions were terminated at various time points (0, 15, 30, 60 min) after incubation at 37° C. The positive control sample was included in each assay to ensure the integrity of the microsomal incubation system.
# (§7) The concentrations of compounds in human or rat liver microsome incubations were plotted as a percentage of the relevant zero time point control for each reaction. The in vivo CLint were extrapolated (ref: Naritomi, Y.; Terashita, S.; Kimura, S.; Suzuki, A.; Kagayama, A.; and Sugiyama, Y.; Prediction of human hepatic clearance from in vivo animal experiments and in vitro metabolic studies with liver microsomes from animals and humans. Drug Metab. Dispos., 2001, 29: 1316-1324).
# [2] = Compound stability in human liver microsomes; type: in vitro ADME
# Protocol: as §1, §2, §3, §4, §5, §6, §7
# [3] = Pharmacokinetic profiles in rats; type: in vivo; conditions: rat, plasma
# Protocol: The LC/MS/MS system used in the analysis consists of an Agilent 1200 Series vacuum degasser, binary pump, well-plate autosampler, thermostatted column compartment, the Agilent G6430 Triple Quadrupole Mass Spectrometer with an electrosprayionization (ESI) source. Quantitative analysis was carried out using MRM mode. The parameters for MRM transitions are in the Table A.
# An Agilent XDB-C18, 2.1×30 mm, 3.5 μM column was used for the analysis. 5 μL of the samples were injected. Analysis condition: The mobile phase was 0.1% formic acid in water (A) and 0.1% formic acid in methanol (B). The flow rate was 0.4 mL/min. And the gradient of Mobile phase was in the Table B.
# Alternatively, an Agilent 6330 series LC/MS/MS spectrometer equipped with G1312A binary pumps, a G1367A autosampler and a G1314C UV detector were used in the analysis. An ESI source was used on the LC/MS/MS spectrometer. The analysis was done in positive ion mode as appropriate and the MRM transition for each analyte was optimized using standard solution. A Capcell MP-C18 100×4.6 mm I.D., […] column (Phenomenex, Torrance, Calif., USA) was used during the analysis. The mobile phase was 5 mM ammonia acetate, 0.1% MeOH in water (A): 5 mM ammonia acetate, 0.1% MeOH in acetonitrile (B) (70/30, v/v). The flow rate was 0.6 mL/min. Column was maintained at ambient temperature. 20 μL of the samples were injected.
# The compounds disclosed herein are assessed in pharmacokinetic studies in mice, rats, dogs or monkeys. The compounds are administered as a water solution, 2% HPMC+1% TWEEN®80 in water solution, 5% DMSO+5% solutol in saline, 4% MC suspension or capsule. For the intravenous administration, the animals are generally given at 1 or 2 mg/kg dose. For the oral (p.o.) dosing, mice and rats are generally given 5 or 10 mg/kg dose, and dogs and monkeys are generally given 10 mg/kg dose. The blood samples (0.3 mL) are drawn at 0.25, 0.5, 1.0, 2.0, 3.0, 4.0, 6.0, 8.0, 12 and 24 h time points or 0.083, 0.25, 0.5, 1.0, 2.0, 4.0, 6.0, 8.0 and 24 h time points and centrifuged at 3,000 or 4000 rpm for 2 to 10 min. The plasma solutions are collected, and stored at −20° C. or −70° C. until analyzed by LC/MS/MS as described above.
# [4] = pH 7.4, 0.5 mg protein/mL, NADPH, 37° C.
# [5] = pH 7.4, in vivo CLint extrapolated
structure (smiles),measurement,setting,value
"Nc1cc(Oc2ccc(NC(=O)c3c4n(n(-c5ccccc5)c3=O)CCC4)cc2)ccn1 [Ex. 1, N-(4-((2-aminopyridin-4-yl)oxy)phenyl)-2-oxo-1-phenyl-2,4,5,6-tetrahydro-1H-pyrrolo[1,2-b]pyrazole-3-carboxamide]",half-life,[1]; [4],1.48 h
same,CLint scaled,[1]; [5],27.9 mL/min/kg
same,half-life,[2]; [4],3.13 h
same,CLint scaled,[2]; [5],9.27 mL/min/kg
same,AUC(0-t),"[3]; iv dosing, 1 mg/kg",1190 ng·h/mL
same,half-life,"[3]; iv dosing, 1 mg/kg",1.51 h
same,Vd,"[3]; iv dosing, 1 mg/kg, read-out: Vss",1.2 L/kg
same,bioavailability,"[3]; po, bioavailability (F)",163%
